Earlier results as cited in patent publication US20230320397A1, “EXTRACTS FOR HEALTH SUPPLEMENTS” (EXTENDED LONGEVITY, priority 2022, published 2023).

Settings: by the use of heat

increased solubility: 12 fold
SMILES: COc1cc(/C=C/C(=O)CC(=O)/C=C/c2ccc(O)c(OC)c2)ccc1O [curcumin]
